According to patent US20100273189A1, “NON SEPARATION ASSAYS WITH SELECTIVE SIGNAL INHIBITORS” (BECKMAN COULTER, INC., priority 2009, published 2010):
Several values for one entry are separate records, joined by “and”; a condition that tells them apart may be missing. Equal entries are not always repeated.

How the values were obtained:
HRP = target: T1, HRP (Armoracia rusticana, UniProt P00433); experiment: HRP model system on PMMA particles, with and without ascorbic acid; format: biochemical; conditions: 200 μM Ascorbate; for RLU: replicates
T1 construct: purchased Roche Diagnostics, Indianapolis, Ind., USA
T1 sequence (P00433 31-338 limits assumed): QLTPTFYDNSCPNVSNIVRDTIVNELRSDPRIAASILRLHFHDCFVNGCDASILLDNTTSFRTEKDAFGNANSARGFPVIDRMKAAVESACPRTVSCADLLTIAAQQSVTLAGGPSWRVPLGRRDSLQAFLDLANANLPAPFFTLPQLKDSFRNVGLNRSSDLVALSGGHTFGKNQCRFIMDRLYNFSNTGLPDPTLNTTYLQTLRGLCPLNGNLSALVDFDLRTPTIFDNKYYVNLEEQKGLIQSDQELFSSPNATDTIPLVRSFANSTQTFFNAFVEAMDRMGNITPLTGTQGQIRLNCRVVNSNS
Experimental: In order to further investigate the effect of specific solid phase particles on the assays described herein, a comparison of a variety of particle types was conducted, including silica, polymethylmethacrylate (PMMA). Carboxyl modified PMMA particles (PolyAn GmbH, Berlin) were labeled with AK and biotin as described in Example 3, followed by coating with streptavidin. Silica particles were reacted with 3-aminopropylsiloxane in 1 mM acetic acid to provide an amine reactive group. The amine functional groups were reacted with AK-3 and biotin-LC-sulfoNHS, followed by coating with streptavidin.
Signal generation with Silica and PMMA particles. Assays using the HRP model system, as generally described in Example 1, were conducted on silica particles and PMMA particles, with and without ascorbic acid in the reaction mixture. The assays were run on a modified DxI instrument as described above. The assay conditions consisted of combining 45 μL BUFFER II (with or without ascorbic acid), 25 μL of particle suspension, and 15 μL of sample and incubating for 30 min. Then 100 μL of trigger solution A was added to the reaction vessel and the light intensity was recorded.

cTnI [1] = experiment: Comparison of particle types in cTnI assay, with and without ascorbic acid; format: biochemical; conditions: 150 μM ascorbic acid; each particle system; highest calibrator level; in words
Experimental: Signal generation with Silica and PMMA particles. A comparison of Dynal M-280, 3 um CML, 6 um CML, PMMA, silica and LodeStars particles was conducted using the cTnI assay described above. The preparation of each particle, bearing a coating of streptavidin, is described in the foregoing examples. Ascorbic acid, when present, was at 150 μM.

cTnI [2] = experiment: cTnI assay with various magnetic particles, without and with ascorbic acid 150 μM; format: biochemical
Text: The effectiveness of ascorbic acid in improving assay performance in microparticle formats was investigated using a cTnI analyte with various magnetic particles. Magnetic particles evaluated included LodeStars PMP, latex PMP and carboxylate-modified polystyrene latex PMP. “Lot B Magnetic Particle” are 6.2 μm diameter carboxyl PMPs (Bangs Laboratories, Fishers, Ind.). “Lot D Magnetic Particle” are 8.1 μm diameter carboxyl PMPs (Bangs Laboratories). “Lot F Latex Particle” are 3.1 μm diameter carboxyl PMPs (Seradyn Products, Thermo-Fisher, Indianapolis, Ind.). “CML PMP” are […] diameter carboxylate modified latex particles (Invitrogen, Carlsbad, Calif.). LodeStars PMP were labeled with AK4 and biotin by EDC coupling and overcoated with streptavidin following the general protocol of Example 3. Lots B, D, and F and CML PMP were labeled with AK-BSA-biotin according to Example 1. The particles were then coated with streptavidin and bound to biotin-labeled anti-cTnI.
In an initial experiment, the cTnI assay was conducted without ascorbic acid in the reaction mix.
In this case, LodeStars particles retain much more specific signal than the other particle types, even while the background decreases almost […].

beta hCG = experiment: Beta hCG assay, AK-Ab1 particle + HRP-Ab2 conjugate; format: biochemical, human; conditions: ascorbic acid employed
Experimental: This example describes a method of detecting beta-human chorionic gonadotrophin (beta hCG) using an AK-Abl particle prepared as set forth in Example 3 and a HRP-Ab2 conjugate prepared as set forth in Example 4 where Ab2 represents an antibody to beta hCG. This method employed ascorbic acid to decrease background signal.
HRP-Ab2 conjugate suspensions were prepared at 1.0 μg/mL and contained either 0 or 1 mM ascorbic acid. Samples consisted of human serum samples with the indicated mounts of beta hCG added or no beta hCG as a control. The test procedure consisted of adding 20 μL of 1.0 μg/mL HRP-Ab2 conjugate and 30 μL of MES buffer containing 1 mg/mL BSA and 1 mg/mL MIgG, pH 5.9 to the reaction vessel. Next, 25 μL of patient serum sample was added, followed by 25 μL of 10 mg/mL AK-Abl conjugate suspension thereby obtaining 100 μL of total volume in the reaction vessel. After 15.2 minutes, 100 μL of trigger solution A was added to the reaction vessel and the light intensity was recorded on the modified DxI instrument. Chemiluminescence intensity is expressed in Relative Light Units (RLU).

O=C1O[C@H]([C@@H](O)CO)C(O)=C1O [Ascorbic Acid, Ascorbic acid]
Mean RLU (HRP; HRP 0 ng/ml): 20,135 RLU | S/S0 (HRP; HRP 0 ng/ml): 1.0 | RLU (HRP; HRP 0 ng/ml): 20,656 RLU and 19,436 RLU and 20,312 RLU | Mean RLU (HRP; HRP 1 ng/ml): 118,472 RLU | S/S0 (HRP; HRP 1 ng/ml): 5.9 | RLU (HRP; HRP 1 ng/ml): 116,596 RLU and 116,308 RLU and 122,512 RLU | Mean RLU (HRP; HRP 10 ng/ml): 2,061,780 RLU | S/S0 (HRP; HRP 10 ng/ml): 102.4 | RLU (HRP; HRP 10 ng/ml): 2,066,824 RLU and 2,171,080 RLU and 1,947,436 RLU | Mean RLU (HRP; HRP 100 ng/ml): 12,093,261 RLU | S/S0 (HRP; HRP 100 ng/ml): 600.6 | RLU (HRP; HRP 100 ng/ml): 12,257,256 RLU and 11,862,048 RLU and 12,160,480 RLU | Mean RLU (HRP; HRP 250 ng/ml): 12,565,744 RLU | S/S0 (HRP; HRP 250 ng/ml): 624.1 | RLU (HRP; HRP 250 ng/ml): 12,575,032 RLU and 12,552,012 RLU and 12,570,188 RLU | S/S0 (cTnI [1]): markedly improved S/S0 | background decrease (cTnI [2]; ascorbic acid 150 μM prior to addition of trigger, LodeStars particles): ~300% | assay sensitivity (cTnI [2]; ascorbic acid in the assay reaction mixture, in words): significantly improves the assay sensitivity | RLU (beta hCG; S0, beta hCG 0 IU/mL): 1,031 RLU | RLU (beta hCG; S1, beta hCG 4.35 IU/mL): 7,288 RLU | S/S0 (beta hCG; S1, beta hCG 4.35 IU/mL): 7 | RLU (beta hCG; S2, beta hCG 20.81 IU/mL): 35,320 RLU | S/S0 (beta hCG; S2, beta hCG 20.81 IU/mL): 34 | RLU (beta hCG; S3, beta hCG 127.285 IU/mL): 298,108 RLU | S/S0 (beta hCG; S3, beta hCG 127.285 IU/mL): 289 | RLU (beta hCG; S4, beta hCG 413.455 IU/mL): 1,293,751 RLU | S/S0 (beta hCG; S4, beta hCG 413.455 IU/mL): 1,255 | RLU (beta hCG; S5, beta hCG 775.805 IU/mL): 2,225,779 RLU | S/S0 (beta hCG; S5, beta hCG 775.805 IU/mL): 2,159
